Measured values from the supplement of paper PMC11061612.

Legend:
Paclitaxel = compound: CC(=O)O[C@H]1C(=O)[C@@]2(C)[C@H]([C@H](OC(=O)c3ccccc3)[C@]3(O)C[C@H](OC(=O)[C@H](O)[C@@H](NC(=O)c4ccccc4)c4ccccc4)C(C)=C1C3(C)C)[C@]1(OC(C)=O)CO[C@@H]1C[C@@H]2O [Paclitaxel]; details: max 3 µM
Procedure, shortened: (§1)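 Plates with 1536 wells received cancer cell lines in 7.5 μl of DMEM/F12 or RPMI containing 10% FBS. After 24 hours at 37°C and 5% CO2, cells were dosed for 72 hours with final DMSO typically 0.2%, and viability was read by CellTiter-Glo 2.0 luminescence scaled between blank-well and DMSO-well means. The single-agent IC50 was taken from a logistic fit of the dose responses made with a non-linear mixed effects model, that logistic curve having two parameters.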

Doxorubicin = compound: COc1cccc2c1C(=O)c1c(O)c3c(c(O)c1C2=O)C[C@@](O)(C(=O)CO)C[C@@H]3O[C@H]1C[C@H](N)[C@H](O)[C@H](C)O1 [Doxorubicin]; details: max 1 µM
Procedure, shortened: as §1

AZD5153 = compound: COc1nnc2ccc(N3CCC(c4ccc(OCCN5CCN(C)C(=O)[C@H]5C)cc4)CC3)nn12 [AZD5153]; details: max 1 µM
Procedure, shortened: as §1

AZD8186 = compound: C[C@@H](Nc1cc(F)cc(F)c1)c1cc(C(=O)N(C)C)cc2c(=O)cc(N3CCOCC3)oc12 [AZD8186]; details: max 10 µM
Procedure, shortened: as §1

SRA737 = compound: N#Cc1cnc(Nc2cc(NC[C@H]3CNCCO3)c(C(F)(F)F)cn2)cn1 [SRA737]; details: max 10 µM
Procedure, shortened: as §1

Prexasertib = compound: COc1cccc(OCCCN)c1-c1cc(Nc2cnc(C#N)cn2)n[nH]1 [Prexasertib]; details: max 1 µM
Procedure, shortened: as §1

Venetoclax = compound: CC1(C)CCC(CN2CCN(c3ccc(C(=O)NS(=O)(=O)c4ccc(NCC5CCOCC5)c([N+](=O)[O-])c4)c(Oc4cnc5[nH]ccc5c4)c3)CC2)=C(c2ccc(Cl)cc2)C1 [Venetoclax]; details: max 1 µM
Procedure, shortened: as §1

Gemcitabine = compound: Nc1ccn([C@@H]2O[C@H](CO)[C@@H](O)C2(F)F)c(=O)n1 [Gemcitabine]; details: max 0.3 µM
Procedure, shortened: as §1

Dasatinib = compound: CC1=C(C(=CC=C1)Cl)NC(=O)C2=CN=C(S2)NC3=CC(=NC(=N3)C)N4CCN(CC4)CCO [Dasatinib]; details: max 2 µM
Procedure, shortened: as §1

Savolitinib = compound: C[C@@H](c1ccc2nccn2c1)n1nnc2ncc(-c3cnn(C)c3)nc21 [Savolitinib]; details: max 1 µM
Procedure, shortened: as §1

Crizotinib = compound: C[C@@H](Oc1cc(-c2cnn(C3CCNCC3)c2)cnc1N)c1c(Cl)ccc(F)c1Cl [Crizotinib]; details: max 10 µM
Procedure, shortened: as §1

Taselisib = compound: Cc1nc(-c2cn3c(n2)-c2ccc(-c4cnn(C(C)(C)C(N)=O)c4)cc2OCC3)n(C(C)C)n1 [Taselisib]; details: max 10 µM
Procedure, shortened: as §1

MK-2206 = compound: NC1(c2ccc(-c3nc4ccn5c(=O)[nH]nc5c4cc3-c3ccccc3)cc2)CCC1 [MK-2206]; details: max 10 µM
Procedure, shortened: as §1

AZD4320 = compound: CN(CC[C@H](CSC1=CC=CC=C1)NC2=C(C=C(C=C2)S(=O)(=O)NC(=O)C3=CC=C(C=C3)N4CCC(CC4)[C@H](C5=CC=CC=C5C6=CC=C(C=C6)Cl)O)S(=O)(=O)C(F)(F)F)CCO [AZD4320]; details: max 1 µM
Procedure, shortened: as §1

Trametinib = compound: CC(=O)Nc1cccc(-n2c(=O)n(C3CC3)c(=O)c3c(Nc4ccc(I)cc4F)n(C)c(=O)c(C)c32)c1 [Trametinib]; details: max 1 µM
Procedure, shortened: as §1

Alisertib = compound: COc1cc(Nc2ncc3c(n2)-c2ccc(Cl)cc2C(c2c(F)cccc2OC)=NC3)ccc1C(=O)O [Alisertib]; details: max 10 µM
Procedure, shortened: as §1

Olaparib = compound: O=C(c1cc(Cc2n[nH]c(=O)c3ccccc23)ccc1F)N1CCN(C(=O)C2CC2)CC1 [Olaparib]; details: max 10 µM
Procedure, shortened: as §1

AZD0156 = compound: CN(C)CCCOc1ccc(-c2ccc3ncc4c(c3c2)n(C2CCOCC2)c(=O)n4C)cn1 [AZD0156]; details: max 3 µM
Procedure, shortened: as §1

Selumetinib = compound: Cn1cnc2c(F)c(Nc3ccc(Br)cc3Cl)c(C(=O)NOCCO)cc21 [Selumetinib]; details: max 10 µM
Procedure, shortened: as §1

Palbociclib = compound: CC(=O)c1c(C)c2cnc(Nc3ccc(N4CCNCC4)cn3)nc2n(C2CCCC2)c1=O [Palbociclib]; details: max 10 µM
Procedure, shortened: as §1

AZD5363 = compound: C1CN(CCC1(C(=O)N[C@@H](CCO)C2=CC=C(C=C2)Cl)N)C3=NC=NC4=C3C=CN4 [AZD5363]; details: max 10 µM
Procedure, shortened: as §1

AZD5991 = compound: Cc1c2c(nn1C)CSCc1cc(n(C)n1)CSc1cc(c3ccccc3c1)OCCCc1c(C(=O)O)n(C)c3c-2c(Cl)ccc13 [AZD5991]; details: max 1 µM
Procedure, shortened: as §1

Gefitinib = compound: COc1cc2ncnc(Nc3ccc(F)c(Cl)c3)c2cc1OCCCN1CCOCC1 [Gefitinib]; details: max 10 µM
Procedure, shortened: as §1

Etoposide = compound: COc1cc([C@@H]2c3cc4c(cc3[C@@H](O[C@@H]3O[C@@H]5CO[C@@H](C)O[C@H]5[C@H](O)[C@H]3O)[C@H]3COC(=O)[C@H]23)OCO4)cc(OC)c1O [Etoposide]; details: max 10 µM
Procedure, shortened: as §1

AZD7648 = compound: Cc1cc2ncnn2cc1Nc1ncc2c(n1)n(C1CCOCC1)c(=O)n2C [AZD7648]; details: max 10 µM
Procedure, shortened: as §1

5-Fluorouracil = compound: O=c1[nH]cc(F)c(=O)[nH]1 [5-Fluorouracil]; details: max 20 µM
Procedure, shortened: as §1

SG3199 = compound: CC1=CN2[C@@H](C1)C=NC3=CC(=C(C=C3C2=O)OC)OCCCCCOC4=C(C=C5C(=C4)N=C[C@@H]6CC(=CN6C5=O)C)OC [SG3199]; details: max 0.001 µM
Procedure, shortened: as §1

Lapatinib = compound: CS(=O)(=O)CCNCc1ccc(-c2ccc3ncnc(Nc4ccc(OCc5cccc(F)c5)c(Cl)c4)c3c2)o1 [Lapatinib]; details: max 10 µM
Procedure, shortened: as §1

AZD2811 = compound: CCN(CCO)CCCOc1ccc2c(Nc3cc(CC(=O)Nc4cccc(F)c4)[nH]n3)ncnc2c1 [AZD2811]; details: max 1 µM
Procedure, shortened: as §1

[1] = compound: O=C(Nc1ccc2[nH]nc(-c3ccncc3)c2c1)[C@@H]1CCN(CC(=O)N2CCN(c3ccc(-c4ncccn4)cc3)CC2)C1; details: max 5 µM
Procedure, shortened: as §1

AZD6738 = compound: C[C@@H]1COCCN1C2=NC(=NC(=C2)C3(CC3)[S@](=N)(=O)C)C4=C5C=CNC5=NC=C4 [AZD6738]; details: max 10 µM
Procedure, shortened: as §1

Carboplatin = compound: C1CC(C1)(C(=O)[O-])C(=O)[O-].N.N.[Pt+2] [Carboplatin]; details: max 10 µM
Procedure, shortened: as §1

AZD1775 = compound: C=CCn1c(=O)c2cnc(Nc3ccc(N4CCN(C)CC4)cc3)nc2n1-c1cccc(C(C)(C)O)n1 [AZD1775]; details: max 3 µM
Procedure, shortened: as §1

AZD1390 = compound: CC(C)n1c(=O)n(C)c2cnc3cc(F)c(-c4ccc(OCCCN5CCCCC5)nc4)cc3c21 [AZD1390]; details: max 0.3 µM
Procedure, shortened: as §1

SN-38 = compound: CCc1c2c(nc3ccc(O)cc13)-c1cc3c(c(=O)n1C2)COC(=O)[C@]3(O)CC [SN-38]; details: max 0.3 µM
Procedure, shortened: as §1

Row | Cell Line | IC50, cell viability 72 h (Paclitaxel) [nM] | IC50, cell viability 72 h (Doxorubicin) [nM] | IC50, cell viability 72 h (AZD5153) [nM] | IC50, cell viability 72 h (AZD8186) [nM] | IC50, cell viability 72 h (SRA737) [nM] | IC50, cell viability 72 h (Prexasertib) [nM] | IC50, cell viability 72 h (Venetoclax) [nM] | IC50, cell viability 72 h (Gemcitabine) [nM] | IC50, cell viability 72 h (Dasatinib) [nM] | IC50, cell viability 72 h (Savolitinib) [nM] | IC50, cell viability 72 h (Crizotinib) [nM] | IC50, cell viability 72 h (Taselisib) [nM] | IC50, cell viability 72 h (MK-2206) [nM] | IC50, cell viability 72 h (AZD4320) [nM] | IC50, cell viability 72 h (Trametinib) [nM] | IC50, cell viability 72 h (Alisertib) [nM] | IC50, cell viability 72 h (Olaparib) [nM] | IC50, cell viability 72 h (AZD0156) [nM] | IC50, cell viability 72 h (Selumetinib) [nM] | IC50, cell viability 72 h (Palbociclib) [nM] | IC50, cell viability 72 h (AZD5363) [nM] | IC50, cell viability 72 h (AZD5991) [nM] | IC50, cell viability 72 h (Gefitinib) [nM] | IC50, cell viability 72 h (Etoposide) [nM] | IC50, cell viability 72 h (AZD7648) [nM] | IC50, cell viability 72 h (5-Fluorouracil) [nM] | IC50, cell viability 72 h (SG3199) [nM] | IC50, cell viability 72 h (Lapatinib) [nM] | IC50, cell viability 72 h (AZD2811) [nM] | IC50, cell viability 72 h [1] [nM] | IC50, cell viability 72 h (AZD6738) [nM] | IC50, cell viability 72 h (Carboplatin) [nM] | IC50, cell viability 72 h (AZD1775) [nM] | IC50, cell viability 72 h (AZD1390) [nM] | IC50, cell viability 72 h (SN-38) [nM]
1 | KARPAS-299 (T-Cell Non-Hodgkin's Lymphoma) | 30.6 | 523 | 115 | > 10000 | 1130 | 5.15 | 708 | 26.6 | > 2000 | > 1000 | 846 | > 10000 | > 10000 | > 1000 | > 1000 | > 10000 | > 10000 | > 3000 | > 10000 | > 10000 | > 10000 | 326 | > 10000 | 3370 | > 10000 | 4460 | > 1 | > 10000 | > 1000 | > 5000 | 698 | > 10000 | 459 | > 300 | 35.7
2 | EFM-19 (Breast Carcinoma) | 26.9 | > 1000 | > 1000 | > 10000 | > 10000 | > 1000 | > 1000 | > 300 | > 2000 | > 1000 | > 10000 | 564 | > 10000 | > 1000 | > 1000 | > 10000 | > 10000 | > 3000 | > 10000 | > 10000 | > 10000 | > 1000 | > 10000 | > 10000 | > 10000 | > 20000 | > 1 | > 10000 | > 1000 | > 5000 | > 10000 | > 10000 | 2090 | > 300 | 288
